{"source": "patent US10973748B2", "about": "“Compositions and methods for lightening skin and reducing hyperpigmentation” (Versitech Limited, priority 2016, dated 2021)", "type_in_all_cases": "cell-based, murine", "key": {"[1]": {"test_system": "tyrosinase", "experiment": "Western blotting of tyrosinase protein level in melan-a cells", "details": "α-MSH, 72 hrs, 20 μM", "procedure": "(§1) Melan-a cells (3×10^5 cells/well) were seeded in 4 mL of culture medium in a 6-well plate for at least 24 hrs prior to use. The cells were treated with α-MSH (1 μM) alone, α-MSH plus plus different concentration of agents for 72 hrs. The cells were washed with cold PBS and then lysed in 100 μL of RIPA buffer containing 1% Nonidet P-40, 0.1% sodium dodecylsulfate, 0.5% sodium deoxycholate, and 2% protease inhibitor at 4° C. Samples were centrifuged at 14,000 rpm for 30 mins at 4° C., and total proteins in the supernatant were separated. 10 μg of denatured proteins were loaded per lane, and separated by 10% SDS-PAGE gel. Proteins were then transferred to Immobilon-P Transfer Membranes (Millipore Co., Bed-ford, Mass.) by semidry transfer. Membranes were incubated with primary antibodies specific for Tyrosinase, tyrosinase-related protein-1 (TRP1), tyrosinase-related protein-2 (TRP2), and microphthalmia-associated transcription factor (MITF). The blots were subsequently washed and incubated with the appropriate secondary antibodies. Immunoreactive protein bands were visualized with enhanced chemiluminescence western blotting detection reagents and quantified using an ODYSSEY Fc Imaging system. The amounts of protein loaded were normalized against a control protein, β-actin."}, "[2]": {"test_system": "tyrosinase-related protein-1 (TRP1)", "experiment": "Western blotting of TRP-1 protein level in melan-a cells", "details": "α-MSH, 72 hrs, 20 μM", "procedure": "as §1"}, "[3]": {"test_system": "melan-a cells", "experiment": "Cell survival rate (CCK-8 assay)", "details": "72 hrs, concentration equal to or lower than 20 μM", "procedure": "Murine melan-a cells (an immortalized, non-tumorigenic murine melanocyte cell line) were obtained from Chinese University of Hong Kong. Cells were cultured in RPMI 1640 medium. Culture medium was supplemented with 10% FBS and 1% penicillin-streptomycin and the cells were incubated at 37° C. in 5% CO2. Melan-a cells were incubated with tetradecanoyl phorbol acetate (TPA) at a concentration of 200 nM. The tested chemical agents (e.g., 6-CEPN and Kojic acid) were individually dissolved as a stock solution at a concentration of 100 mM in 100% dimethyl sulfoxide (DMSO). The stock solution was diluted using culture medium to the desired final concentrations immediately prior to use.\nMelan-a cells (10,000 cells/well) were plated in 100 μL 96-well multidishes for at least 24 hours (hrs) prior to use. The cells were treated with serial concentrations of tested chemicals for 72 hrs. After the indicated incubation time, cells were washed three times using PBS and then treated with CCK-8 solution (0.5 mg/mL) for 1.5 hours. Absorbance was measured at 490 nm using Victor X4 Multilabel Plate Reader (PerkinElmer, Mass., USA). Values were expressed as the mean cell viability as a percentage of that of the vehicle DMSO (0.1% final volume)-treated cultures."}}}
{"smiles": "O=C1C[C@@H](c2ccc(O)cc2)Oc2cc(O)c(/C=C/c3ccccc3)c(O)c21", "note": "[6-CEPN, 6-C-(E-phenylethenyl)-naringenin]", "values": [{"measurement": "protein level of tyrosinase", "setting": "[1]", "result": "significantly suppressed"}, {"measurement": "protein level of TRP-1", "setting": "[2]", "result": "significantly suppressed"}, {"measurement": "cell survival rate", "setting": "[3]", "result": "no significant decrease"}]}
